Results on 18 compounds are retold here after patent US20060069084A1, “Methods of inhibiting kinases” (priority 2001, published 2006).

Some results are limits rather than exact numbers.

Format in all cases: biochemical
What all share (conditions): inhibit 50% of activity at 50 μM

In one assay the target is T1, TYK2 (Homo sapiens, UniProt P29597).
T1 construct: The kinase domain of humanTYK2 was amplified from A549 mRNA; His tag (from pBlueBacHis2A vector; nickel chelate purification) (N); made in house; host or cells: baculovirus; virus made in Sf9, large-scale expression in High Five insect cells
T1 sequence (P29597 897-1176 limits assumed): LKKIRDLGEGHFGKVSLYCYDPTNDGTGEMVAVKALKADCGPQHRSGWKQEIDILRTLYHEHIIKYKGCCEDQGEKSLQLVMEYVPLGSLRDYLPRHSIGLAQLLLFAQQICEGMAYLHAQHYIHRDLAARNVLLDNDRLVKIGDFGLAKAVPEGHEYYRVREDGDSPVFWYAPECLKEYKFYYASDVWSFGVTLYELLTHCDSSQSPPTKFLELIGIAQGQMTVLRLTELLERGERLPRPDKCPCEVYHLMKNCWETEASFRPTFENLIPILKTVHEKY
The assay can be described thus: TYK2 kinase domain capture-based ELISA kinase assay. As to the method: (§1) For screening purposes, compounds were diluted in 96 well plates at a concentration of 50 μM or 20 μM. Plates were warmed at 37° C. for 30 minutes before assay.
The kinase domain of humanTYK2 was amplified from A549 mRNA using the polymerase chain reaction with the following primers: […]
TYK2 PCR products were cloned into pBlueBacHis2A (Invitrogen) via the EcoRI site. The recombinant TYK2 baculovirus produced was prepared for transfected into Sf9 insect cells.
(§2) Baculovirus preparations from each of the JAK family members were infected into five litres of High Five cells (Invitrogen) grown in High Five serum free medium (Invitrogen) to a cell density of approximately 1-2×10^6 cells/ml. Cells are infected with virus at a MOI of 0.8-3.0. Cells were harvested and lysed. JAK kinase domains were purified by affinity chromatography on a Probond (Invitrogen) nickel chelate affinity column.
(§3) The biotinylated substrate biotin-EGPWLEEEEEAYGWMDF-NH2 (SEQ ID NO:9) (final concentration 5 μM) was used as substrate, and tyrosine phosphorylation was quantitated following transfer to an avidin coated ELISA plate using peroxidase-linked anti-phospho-tyrosine antibody PY20.
(§4) Inhibitors were added to the assays fifteen minutes prior to the addition of ATP. Inhibitors were added in aqueous DMSO, with DMSO concentrations never exceeding 1%.
(ELISA stands for enzyme-linked immunosorbent assay.)

The target of the next assay is T2, JAK1 (Homo sapiens, UniProt P23458).
T2 construct: The kinase domain of humanJAK1 was amplified from U937mRNA; His tag (from pFastBac HTb vector; nickel chelate purification) (N); made in house; host or cells: baculovirus; virus made in Sf9, large-scale expression in High Five insect cells
T2 sequence (P23458 875-1153 limits assumed): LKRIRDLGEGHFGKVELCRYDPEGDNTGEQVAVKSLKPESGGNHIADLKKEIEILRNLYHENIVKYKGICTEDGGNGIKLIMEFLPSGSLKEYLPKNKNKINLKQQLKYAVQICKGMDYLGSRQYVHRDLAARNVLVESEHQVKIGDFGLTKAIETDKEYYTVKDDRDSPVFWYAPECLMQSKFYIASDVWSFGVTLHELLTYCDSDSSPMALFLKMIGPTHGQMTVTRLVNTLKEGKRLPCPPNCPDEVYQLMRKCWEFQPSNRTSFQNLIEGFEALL
The assay can be described thus: JAK1 kinase domain capture-based ELISA kinase assay. As to the method:
as §1
The kinase domain of humanJAK1 was amplified from U937mRNA using the polymerase chain reaction with the following primers: […]
JAK1 PCR products were cloned into the pFastBac HTb expression vector (Gibco) via the Xho I and Kpn I sites. The JAK1 plasmid was then transformed into competent DH10Bac cells (Gibco), and the recombinant baculovirus produced prepared for transfection into Sf9 insect cells.
as §2, §3, §4

The next assay has as its target T3, JAK2 (Homo sapiens, UniProt O60674).
T3 construct: The kinase domain of humanJAK2 was amplified from U937mRNA; His tag (from pFastBac HTc vector; nickel chelate purification) (N); made in house; host or cells: baculovirus; virus made in Sf9, large-scale expression in High Five insect cells
Briefly: JAK2 kinase domain capture-based ELISA kinase assay. The method, then: as §1
The kinase domain of humanJAK2 was amplified from U937mRNA using the polymerase chain reaction with the following primers: […]
JAK2 PCR products were cloned into the pFastBac HTc expression vector (Gibco) via the Sal I and Not I sites. The JAK2 plasmid was then transformed into competent DH10Bac cells (Gibco), and the recombinant baculovirus produced prepared for transfection into Sf9 insect cells.
as §2, §3, §4

A further assay concerns the target T4, JAK3 (Homo sapiens, UniProt P52333).
T4 construct: The kinase domain of humanJAK3 was amplified from U937mRNA; His tag (from pFastBac HTb vector; nickel chelate purification) (N); made in house; host or cells: baculovirus; virus made in Sf9, large-scale expression in High Five insect cells
The assay can be described thus: JAK3 kinase domain capture-based ELISA kinase assay. The method, then: as §1
The kinase domain of humanJAK3 was amplified from U937mRNA using the polymerase chain reaction with the following primers: […]
JAK3 PCR products were cloned into the pFastBac HTb expression vector (Gibco) via the Xho I and Kpn I sites. The JAK3 plasmid was then transformed into competent DH10Bac cells (Gibco), and the recombinant baculovirus produced prepared for transfection into Sf9 insect cells.
as §2, §3, §4

T3 sequence (O60674 849-1124 limits assumed): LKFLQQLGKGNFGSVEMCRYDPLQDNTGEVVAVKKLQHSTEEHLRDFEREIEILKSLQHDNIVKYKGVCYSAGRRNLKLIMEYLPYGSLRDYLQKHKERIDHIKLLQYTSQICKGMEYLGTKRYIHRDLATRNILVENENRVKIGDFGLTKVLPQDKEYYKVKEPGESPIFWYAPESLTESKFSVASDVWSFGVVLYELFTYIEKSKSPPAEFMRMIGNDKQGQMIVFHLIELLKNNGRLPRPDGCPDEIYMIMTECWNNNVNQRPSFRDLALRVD
T4 sequence (P52333 822-1111 limits assumed): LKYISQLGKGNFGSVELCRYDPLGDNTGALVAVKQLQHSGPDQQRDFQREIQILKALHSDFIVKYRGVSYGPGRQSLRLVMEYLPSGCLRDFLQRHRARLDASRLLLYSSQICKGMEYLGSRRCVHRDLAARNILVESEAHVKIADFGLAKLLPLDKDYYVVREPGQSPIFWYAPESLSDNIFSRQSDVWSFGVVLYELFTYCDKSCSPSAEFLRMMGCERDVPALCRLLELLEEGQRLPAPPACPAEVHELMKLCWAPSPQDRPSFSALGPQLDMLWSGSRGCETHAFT

For the compound `Clc1ccccc1-c1cn2ccnc2c(NCc2ccccn2)n1`, the IC50 (commonly the concentration that gives 50% inhibition) against TYK2 (Table 6) was greater than 50 µM; against JAK1 (Table 6), greater than 50 µM; at JAK2 (Table 6), less than 50 µM; against JAK3 (Table 6), greater than 50 µM.
As for `c1ccc(CNc2nc(Nc3cccc4[nH]ccc34)cn3ccnc23)cc1`, the IC50 on TYK2 (Table 5), against JAK1 (Table 5), against JAK2 (Table 5) and against JAK3 (Table 5) was less than 50 µM each time.
As for `c1coc(-c2cn3ccnc3c(Nc3ccc4[nH]ccc4c3)n2)c1`, the IC50 is less than 50 µM against TYK2 (Table 6), less than 50 µM on JAK1 (Table 6), less than 50 µM against JAK2 (Table 6) and greater than 50 µM at JAK3 (Table 6).
Regarding `COCCNc1nc(-c2ccccc2)cn2ccnc12` [drawing 85], the IC50 at TYK2 (Table 5), at JAK1 (Table 5), on JAK2 (Table 5) and against JAK3 (Table 5) was less than 50 µM in each case.
`COc1ccc(Nc2nc(-c3ccc4ccccc4c3)cn3ccnc23)cn1`: the IC50 against TYK2 (Table 5), at JAK1 (Table 5), against JAK2 (Table 5) and against JAK3 (Table 5) was less than 50 µM throughout.
Take `CN(C)c1ccc(-c2cn3ccnc3c(NC3CC3)n2)cc1`: the IC50 against TYK2 (Table 6) is greater than 50 µM; against JAK1 (Table 6) it was greater than 50 µM; on JAK2 (Table 6), greater than 50 µM; against JAK3 (Table 6), less than 50 µM.
Take `COc1cncc(-c2cncc(NCC(C)(C)CO)n2)c1` [CYT21103]: the IC50 against TYK2 (Table 3), against JAK1 (Table 3), against JAK2 (Table 3) and at JAK3 (Table 3) was less than 50 µM in each case.
`COCCNc1nc(-c2ccccc2)cn2ccnc12` [drawing 93]: the IC50 on TYK2 (Table 6) is greater than 50 µM; on JAK1 (Table 6), less than 50 µM; at JAK2 (Table 6) it was less than 50 µM; on JAK3 (Table 6) it was greater than 50 µM.
With `COc1cc(-c2cncc(Nc3ccc(C#N)cc3)n2)cc(OC)c1OC` [CYT32302], the IC50 at TYK2 (Table 3), at JAK1 (Table 3), against JAK2 (Table 3) and on JAK3 (Table 3) was less than 50 µM throughout.
With `Brc1cn2ccnc2c(Nc2ccccc2)n1`, the IC50 was less than 50 µM against TYK2 (Table 6), less than 50 µM at JAK1 (Table 6), less than 50 µM on JAK2 (Table 6) and greater than 50 µM at JAK3 (Table 6).
Regarding `CN(C)C(=O)COc1cccc(Nc2nc(-c3cccc(N)c3)cn3ccnc23)c1`, the IC50 at TYK2 (Table 6), against JAK1 (Table 6), against JAK2 (Table 6) and against JAK3 (Table 6) was less than 50 µM each time.
As to `CCNc1nc(-c2ccc(N(C)C)cc2)cn2ccnc12`, the IC50 against TYK2 (Table 6) is greater than 50 µM; against JAK1 (Table 6), less than 50 µM; on JAK2 (Table 6), greater than 50 µM; at JAK3 (Table 6), greater than 50 µM.
`COc1cc(-c2cn3ccnc3c(NC3CC3)n2)ccc1O`: the IC50 against TYK2 (Table 6) was greater than 50 µM; against JAK1 (Table 6), less than 50 µM; at JAK2 (Table 6), less than 50 µM; against JAK3 (Table 6), less than 50 µM.
Consider `COc1cc(-c2cn3ccnc3c(Nc3ccccc3)n2)cc(OC)c1OC`, for which the IC50 against TYK2 (Table 6) was greater than 50 µM; against JAK1 (Table 6) it was less than 50 µM; at JAK2 (Table 6) it was less than 50 µM; at JAK3 (Table 6), greater than 50 µM.
Regarding `COc1ccccc1-c1cn2ccnc2c(Nc2ccc(N3CCOCC3)cc2)n1`, the IC50 against TYK2 (Table 6) was less than 50 µM; on JAK1 (Table 6) it was less than 50 µM; at JAK2 (Table 6), less than 50 µM; against JAK3 (Table 6), greater than 50 µM.
For the compound `COc1cncc(-c2cncc(NCc3ccccc3)n2)c1` [CYT24605], the IC50 against TYK2 (Table 3), on JAK1 (Table 3), at JAK2 (Table 3) and against JAK3 (Table 3) was less than 50 µM each time.
Consider `CCN(CCO)c1ccc(Nc2nc(-c3cccc4ccccc34)cn3ccnc23)cc1` [drawing 94], for which the IC50 at TYK2 (Table 6) is greater than 50 µM; against JAK1 (Table 6) it was less than 50 µM; at JAK2 (Table 6) it was less than 50 µM; on JAK3 (Table 6) it was greater than 50 µM.
On to `CCN(CCO)c1ccc(Nc2nc(-c3ccccc3CO)cn3ccnc23)cc1` [drawing 69], for which the IC50 on TYK2 (Table 5), against JAK1 (Table 5), against JAK2 (Table 5) and on JAK3 (Table 5) was less than 50 µM throughout.
